Results reported in PubChem BioAssay (NCI).
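Assay format: 96-well plates, 48-hour exposure. GI50: concentration for 50% inhibition of growth. TGI: concentration producing complete growth inhibition.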

Key:
Assay in all cases: growth of human tumour cells (NCI), 48 h
NCI-H460 lung = test system: NCI-H460 lung
HCT-116 colon = test system: HCT-116 colon
SK-MEL-28 melanoma = test system: SK-MEL-28 melanoma
SK-MEL-2 melanoma = test system: SK-MEL-2 melanoma
M14 melanoma = test system: M14 melanoma
MCF7 breast = test system: MCF7 breast
NCI-H226 lung = test system: NCI-H226 lung
SR leukemia = test system: SR leukemia

| Compound | GI50 (NCI-H460 lung) | TGI (NCI-H460 lung) | GI50 (HCT-116 colon) | TGI (HCT-116 colon) | GI50 (SK-MEL-28 melanoma) | TGI (SK-MEL-28 melanoma) | GI50 (SK-MEL-2 melanoma) | TGI (SK-MEL-2 melanoma) | GI50 (M14 melanoma) | TGI (M14 melanoma) | TGI (MCF7 breast) | TGI (NCI-H226 lung) | GI50 (MCF7 breast) | GI50 (NCI-H226 lung) | TGI (SR leukemia) |
| --- | --- | --- | --- | --- | --- | --- | --- | --- | --- | --- | --- | --- | --- | --- | --- |
| N.N.N.N.[Co+3].[N-]=[N+]=[N-].[N-]=[N+]=[N-].[N-]=[N+]=[N-] | > 100 µM | > 100 µM | 85.5 µM | > 100 µM | 47.1 µM | > 100 µM | > 100 µM | > 100 µM | > 100 µM | > 100 µM | – | – | – | – | – |
| C=CCOc1cc(NC(=S)c2ccoc2C)ccc1OC | – | > 100 µM | – | > 100 µM | – | > 100 µM | – | > 100 µM | – | > 100 µM | > 100 µM | > 100 µM | – | – | – |
| CN1CCC2(CC1)ONC1=NCCN12 | 37.2 µM | > 100 µM | 32.4 µM | > 100 µM | > 100 µM | > 100 µM | > 100 µM | > 100 µM | 47.9 µM | > 100 µM | 87.1 µM | 63.5 µM | 23 µM | 21.8 µM | – |
| OC(Cc1ccncc1)C(Cl)(Cl)Cl (stereo not given) | > 100 µM | > 100 µM | – | – | > 100 µM | > 100 µM | > 100 µM | > 100 µM | > 100 µM | > 100 µM | > 100 µM | > 100 µM | > 100 µM | > 100 µM | – |
| O=C(O)CCCSC(=O)Nc1ccc(N=Nc2ccccc2)cc1 | – | > 100 µM | – | > 100 µM | – | > 100 µM | – | > 100 µM | – | > 100 µM | – | > 100 µM | – | – | > 100 µM |
| CC(C)Cn1cnc2c(SCc3ccc(Cl)cc3Cl)nc(N)nc21 | – | 35.4 µM | – | > 100 µM | – | > 100 µM | – | > 100 µM | – | > 100 µM | 47.8 µM | – | – | – | 25.8 µM |
| C=C1C(=O)O[C@H]2[C@H]1CC/C(COC(=O)CSCSCC(=O)OC/C1=C/CC[C@@]3(C)O[C@H]3[C@H]3OC(=O)C(=C)[C@@H]3CC1)=C\CC[C@@]1(C)O[C@@H]21 | 2.1 µM | 4.86 µM | 0.59 µM | 1.93 µM | 1.63 µM | 3.19 µM | 2.29 µM | 5.24 µM | 1.55 µM | 3.22 µM | 2.25 µM | 13.9 µM | 0.642 µM | 3.51 µM | – |
| C[C@]12C[C@H](CCCCCCNCCOC(=O)NCCCc3ccc(N(CCCl)CCCl)cc3)C3=C4CCC(=O)C=C4CCC3C1CC[C@@H]2O (stereo not given in full) | 0.672 µM | 4.08 µM | 2.34 µM | – | – | – | – | – | 2.9 µM | 7.29 µM | 3.05 µM | 4.15 µM | 0.3 µM | 2.15 µM | – |
| CCOC(=O)/C(C=Nc1ccc(-c2nc3ccccc3[nH]2)cc1)=C(/C)O | 12.1 µM | > 50 µM | 7.82 µM | 14.5 µM | – | – | 9.14 µM | 22.6 µM | 12.7 µM | 32 µM | > 50 µM | – | 11.7 µM | – | – |
| C/C=C(\C)C(=O)NC1=CC[C@@]2(C)C(=CCC3C2CC[C@@]2(C)C3CC[C@@H]2C(C)N(C)C)C1=O (stereo not given in full) | 2.06 µM | 4.98 µM | 1.41 µM | 3.1 µM | 1.72 µM | 3.24 µM | 7.52 µM | 22.9 µM | 1.81 µM | 3.44 µM | 14.2 µM | 36.3 µM | 2.79 µM | 4.65 µM | – |
| COC(=O)c1ccc(-c2nc3cc(Cl)c(Cl)cc3nc2C#N)cc1 | > 100 µM | > 100 µM | > 100 µM | > 100 µM | > 100 µM | > 100 µM | > 100 µM | > 100 µM | > 100 µM | > 100 µM | > 100 µM | > 100 µM | > 100 µM | > 100 µM | – |
| CC1(C)O[C@H]2[C@H](O)C[C@](O)(CO)C[C@H]2O1 | – | > 100 µM | – | > 100 µM | – | > 100 µM | – | > 100 µM | – | > 100 µM | – | > 100 µM | – | – | > 100 µM |
| O=C(c1ccccc1)c1ccccc1-c1ccccc1 | 3.35 µM | 18.2 µM | 3.17 µM | 30.1 µM | 7.52 µM | > 100 µM | 1.65 µM | 9.48 µM | 1.75 µM | 13 µM | > 100 µM | > 100 µM | 2.97 µM | 19.6 µM | – |
| COC(=O)NC(=O)c1cn(C2OC(CO)C(O)C2O)c(=O)[nH]c1=O (stereo not given) | – | > 100 µM | – | > 100 µM | – | > 100 µM | – | > 100 µM | – | > 100 µM | – | > 100 µM | – | – | > 100 µM |
| CC(=O)NC1C(OC[C@@H](CC(=O)N[C@@H](CC(=O)O)CC(=O)N[C@H](CC(=O)N[C@@H](CCCN)CC(=O)N[C@@H](CCCN)CC(=O)N[C@H](CC(N)=O)C(C)C)C(C)C)NC(=O)C[C@@H](N)C(C)C)OC(CO)C(O)C1O (stereo not given in full) | > 100 µM | > 100 µM | > 100 µM | > 100 µM | > 100 µM | > 100 µM | > 100 µM | > 100 µM | > 100 µM | > 100 µM | > 100 µM | > 100 µM | > 100 µM | > 100 µM | – |
